From patent publication US6562793B2, “Antiallergic agent” (We'll Corporation, priority 2000, dated 2003)

Key:
[1] = tested on: mast cells from the rat abdominal cavity; experiment: Inhibition of histamine release from mast cells from a rat abdominal cavity; type: cell-based; settings: Releaser: Compound 48/80
Method: A mast cell suspension is collected from a rat abdominal cavity. The suspension is treated with a sample adjusted to 1 to 0.01% (specimen) and to the mixture is added a histamine releasing agent. Inhibition of this release is observed to determine an activity value. […]
A solution of sample adjusted to a concentration of 0.01 to 0.003% in Tyrode's solution containing phosphatidyl-L-serine (PS) (1.75 mL) was preincubated at 37° C. for 5 min. To the solution was added 0.05 mL of the mast cell suspension from the rat abdominal cavity and the mixture was preincubated for further 15 min. […] A control was prepared as described above except that 1.75 mL of Tyrode's solution containing PS was used in place of 1.75 mL of the sample solution in Tyrode's solution containing PS and 0.2 mL of […] PS. After quenching the reaction by ice cooling, the mixture was centrifuged at 300×g and 4° C. for 10 min. The amounts of histamine were determined for the supernatant and the sediment, respectively, according to the method of Shore et al. to calculate an inhibition rate to histamine release.
Calculation equation for a histamine release rate [formula]
PS=Amount of histamine in the supernatant
PR=Amount of histamine remaining in the cells
Calculation equation for a release inhibition rate [formula]
S=Release rate of the sample
C=Release rate of the control […]

[2] = Solubility in water; type: physicochemical

Compound: O=c1c(O[C@@H]2OC(CO[C@@H]3OC(CO)[C@@H](O)C(O)C3O)[C@@H](O)C(O)C2O)c(-c2ccc(O)cc2)oc2cc(O)cc(O)c12 (stereo partly drawn) [kaempferol 3-0 [β-D-glucopyranosyl-(1→6)-β-D-glucopyranoside]]
- Inhibition rate ([1]; concentration 3 × 10^−5 g/mL): 28.5%
- Inhibition rate ([1]; concentration 9 × 10^−5 g/mL): 98.4%
- solubility in water [2]: freely soluble
